Data published in publication PMC10686834, “Targeting myeloid chemotaxis to reverse prostate cancer therapy resistance” (Nature, 2023).
Entries after “also recorded” stand apart in the source; their conditions may differ.

Test system: patients with ARSI-resistant mCRPC
Assay: Phase 1 trial of AZD5069 plus enzalutamide: safety and tolerability (DLTs, treatment-emergent adverse events, NCI-CTCAE v.4.0)
Format: in vivo
Description: The primary trial objective was to evaluate the safety and tolerability of the combination. Key secondary objectives were to evaluate pharmacokinetic–pharmacodynamic parameters and antitumour activity.
Eligible patients were consenting patients aged ≥18 years, who had mCRPC with histologically confirmed prostate adenocarcinoma histology, documented cancer progression at the time of trial entry by Response Evaluation Criteria in Solid Tumors (v.1.1) and/or Prostate Cancer Working Group 2 criteria, and PSA of ≥10 ng ml^−1 at screening.
The dose-escalation phase used a rule-based 3 + 3 design, with an initial three patients enrolled per dose level. If none of the first three patients experienced a DLT, dose escalation proceeded to the next dose level. […] If fewer than two of six patients at any dose level experienced a DLT, dose escalation continued to the next level. If at least two out of up to six patients experienced a DLT, dose escalation stopped and this dose level was defined as the maximum administered dose. Once this maximum administered dose was defined, the maximum tolerated dose (MTD) was confirmed at the dose level below the maximum administered dose. At least six evaluable patients were required to establish the MTD at a specific dose level. […] Intra-patient dose escalation was not permitted. Start of dosing between the first and second patient enrolled to each dose level was staggered by 1 week. Once the MTD was determined in the phase 1 study, the recommended phase 2 dose was determined on the basis of available data, including but not limited to safety and response.
DLTs were defined as described in the study protocol. […] Prophylaxis with growth factor support or antipyretics were not permitted. Investigators determined whether an adverse event was related to the study drugs. If a patient experienced clinically significant and/or unacceptable toxicity, including a DLT, not attributable to the disease or disease-related processes, dosing was interrupted or the dose was reduced and supportive therapy was administered as required.

C[C@@H](Oc1cc(NS(=O)(=O)N2CCC2)nc(SCc2cccc(F)c2F)n1)[C@@H](O)CO [AZD5069]
TEAE Anemia, All G (AZD5069 40 mg BD (n=3)): 1 (33) n (%)
TEAE Anemia, G≥3 (AZD5069 40 mg BD (n=3)): 0 (0) n (%)
TEAE Aphasia, All G (AZD5069 40 mg BD (n=3)): 0 (0) n (%)
TEAE Aphasia, G≥3 (AZD5069 40 mg BD (n=3)): 0 (0) n (%)
TEAE Arthralgia, All G (AZD5069 40 mg BD (n=3)): 0 (0) n (%)
TEAE Arthralgia, G≥3 (AZD5069 40 mg BD (n=3)): 0 (0) n (%)
TEAE Aspartate aminotransferase increased, All G (AZD5069 40 mg BD (n=3)): 0 (0) n (%)
TEAE Aspartate aminotransferase increased, G≥3 (AZD5069 40 mg BD (n=3)): 0 (0) n (%)
TEAE Constipation, All G (AZD5069 40 mg BD (n=3)): 0 (0) n (%)
TEAE Constipation, G≥3 (AZD5069 40 mg BD (n=3)): 0 (0) n (%)
TEAE Death, All G (AZD5069 40 mg BD (n=3)): 0 (0) n (%)
TEAE Death, G≥3 (AZD5069 40 mg BD (n=3)): 0 (0) n (%)
TEAE Decreased appetite, All G (AZD5069 40 mg BD (n=3)): 0 (0) n (%)
TEAE Decreased appetite, G≥3 (AZD5069 40 mg BD (n=3)): 0 (0) n (%)
TEAE Diarrhoea, All G (AZD5069 40 mg BD (n=3)): 0 (0) n (%)
TEAE Diarrhoea, G≥3 (AZD5069 40 mg BD (n=3)): 0 (0) n (%)
TEAE Dry skin, All G (AZD5069 40 mg BD (n=3)): 0 (0) n (%)
TEAE Dry skin, G≥3 (AZD5069 40 mg BD (n=3)): 0 (0) n (%)
TEAE Fatigue, All G (AZD5069 40 mg BD (n=3)): 0 (0) n (%)
TEAE Fatigue, G≥3 (AZD5069 40 mg BD (n=3)): 0 (0) n (%)
TEAE Headache, All G (AZD5069 40 mg BD (n=3)): 0 (0) n (%)
TEAE Headache, G≥3 (AZD5069 40 mg BD (n=3)): 0 (0) n (%)
TEAE Hypophosphataemia, All G (AZD5069 40 mg BD (n=3)): 0 (0) n (%)
TEAE Hypophosphataemia, G≥3 (AZD5069 40 mg BD (n=3)): 0 (0) n (%)
TEAE Nausea, All G (AZD5069 40 mg BD (n=3)): 1 (33) n (%)
TEAE Nausea, G≥3 (AZD5069 40 mg BD (n=3)): 0 (0) n (%)
TEAE Neutrophil decreased, All G (AZD5069 40 mg BD (n=3)): 2 (67) n (%)
TEAE Neutrophil decreased, G≥3 (AZD5069 40 mg BD (n=3)): 0 (0) n (%)
TEAE Oedema genital, All G (AZD5069 40 mg BD (n=3)): 0 (0) n (%)
TEAE Oedema genital, G≥3 (AZD5069 40 mg BD (n=3)): 0 (0) n (%)
TEAE Platelet decreased, All G (AZD5069 40 mg BD (n=3)): 0 (0) n (%)
TEAE Platelet decreased, G≥3 (AZD5069 40 mg BD (n=3)): 0 (0) n (%)
TEAE Pruritus, All G (AZD5069 40 mg BD (n=3)): 1 (33) n (%)
TEAE Pruritus, G≥3 (AZD5069 40 mg BD (n=3)): 0 (0) n (%)
TEAE Skin infection, All G (AZD5069 40 mg BD (n=3)): 0 (0) n (%)
TEAE Skin infection, G≥3 (AZD5069 40 mg BD (n=3)): 0 (0) n (%)
TEAE Vomiting, All G (AZD5069 40 mg BD (n=3)): 1 (33) n (%)
TEAE Vomiting, G≥3 (AZD5069 40 mg BD (n=3)): 0 (0) n (%)
TEAE White blood cell decreased, All G (AZD5069 40 mg BD (n=3)): 0 (0) n (%)
TEAE White blood cell decreased, G≥3 (AZD5069 40 mg BD (n=3)): 0 (0) n (%)
dose-limiting toxicity (DLT) (AZD5069 40 mg BD to 320 mg BD plus enzalutamide 160 mg OD, 21 patients evaluable for DLTs): did not observe any DLT; also recorded: without dose-limiting toxicity
TEAE Anemia, All G (AZD5069 80 mg BD (n=4)): 0 (0) n (%)
TEAE Anemia, G≥3 (AZD5069 80 mg BD (n=4)): 0 (0) n (%)
TEAE Aphasia, All G (AZD5069 80 mg BD (n=4)): 0 (0) n (%)
TEAE Aphasia, G≥3 (AZD5069 80 mg BD (n=4)): 0 (0) n (%)
TEAE Arthralgia, All G (AZD5069 80 mg BD (n=4)): 0 (0) n (%)
TEAE Arthralgia, G≥3 (AZD5069 80 mg BD (n=4)): 0 (0) n (%)
TEAE Aspartate aminotransferase increased, All G (AZD5069 80 mg BD (n=4)): 0 (0) n (%)
TEAE Aspartate aminotransferase increased, G≥3 (AZD5069 80 mg BD (n=4)): 0 (0) n (%)
TEAE Constipation, All G (AZD5069 80 mg BD (n=4)): 0 (0) n (%)
TEAE Constipation, G≥3 (AZD5069 80 mg BD (n=4)): 0 (0) n (%)
TEAE Death, All G (AZD5069 80 mg BD (n=4)): 0 (0) n (%)
TEAE Death, G≥3 (AZD5069 80 mg BD (n=4)): 0 (0) n (%)
TEAE Decreased appetite, All G (AZD5069 80 mg BD (n=4)): 0 (0) n (%)
TEAE Decreased appetite, G≥3 (AZD5069 80 mg BD (n=4)): 0 (0) n (%)
TEAE Diarrhoea, All G (AZD5069 80 mg BD (n=4)): 0 (0) n (%)
TEAE Diarrhoea, G≥3 (AZD5069 80 mg BD (n=4)): 0 (0) n (%)
TEAE Dry skin, All G (AZD5069 80 mg BD (n=4)): 0 (0) n (%)
TEAE Dry skin, G≥3 (AZD5069 80 mg BD (n=4)): 0 (0) n (%)
TEAE Fatigue, All G (AZD5069 80 mg BD (n=4)): 1 (25) n (%)
TEAE Fatigue, G≥3 (AZD5069 80 mg BD (n=4)): 0 (0) n (%)
TEAE Headache, All G (AZD5069 80 mg BD (n=4)): 0 (0) n (%)
TEAE Headache, G≥3 (AZD5069 80 mg BD (n=4)): 0 (0) n (%)
